The structures appear in SMILES notation.

In general, IC50 refers to the midpoint of a concentration-inhibition curve.

The test deals with Protease (Human immunodeficiency virus 1, UniProt Q9YQ12). Nature of the test: Inhibition of HIV1 protease expressed in Escherichia coli K12 assessed as inhibition of enzyme activity.
Chain of Protease (Q9YQ12 whole entry): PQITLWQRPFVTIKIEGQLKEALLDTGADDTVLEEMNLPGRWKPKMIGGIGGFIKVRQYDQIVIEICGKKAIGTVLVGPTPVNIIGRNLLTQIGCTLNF
For `CC(C)[C@H](NC(=O)OCc1ccccc1)C(=O)N[C@@H](Cc1ccccc1)[C@@H](O)[C@H](O)[C@H](Cc1ccccc1)NC(=O)[C@@H](NC(=O)OCc1ccccc1)C(C)C`, the IC50 is 2 nM.
For `CC(C)[C@H](NC(=O)[C@H](Cc1ccncc1)CS(=O)(=O)C(C)(C)C)C(=O)N[C@@H](Cc1ccccc1)[C@@H](O)[C@H](O)[C@H](Cc1ccccc1)NC(=O)[C@@H](NC(=O)[C@H](Cc1ccncc1)CS(=O)(=O)C(C)(C)C)C(C)C` the value was 0.794 nM; for `COc1ccc(C[C@H](NC(=O)[C@@H](NC(=O)[C@H](Cc2cccc3ccccc23)CS(=O)(=O)C(C)(C)C)C(C)C)[C@@H](O)[C@H](O)[C@H](Cc2ccc(OC)cc2OC)NC(=O)[C@@H](NC(=O)[C@H](Cc2cccc3ccccc23)CS(=O)(=O)C(C)(C)C)C(C)C)c(OC)c1`, 18.2 nM.
For `CC(C)[C@H](NC(=O)OCc1cccnc1)C(=O)N[C@@H](Cc1ccccc1)[C@@H](O)[C@H](O)[C@H](Cc1ccccc1)NC(=O)[C@@H](NC(=O)OCc1cccnc1)C(C)C` the value was 1.29 nM; for `CCC(C)[C@H](NC(=O)[C@H](Cc1cccc2ccccc12)CS(=O)(=O)C(C)(C)C)C(=O)N[C@@H](Cc1ccccc1)[C@@H](O)[C@H](O)[C@H](Cc1ccccc1)NC(=O)[C@@H](NC(=O)[C@H](Cc1cccc2ccccc12)CS(=O)(=O)C(C)(C)C)C(C)CC` (stereo partly specified), 0.302 nM; for `CC(C)[C@H](NC(=O)[C@@H](O)Cc1ccccc1)C(=O)N[C@@H](Cc1ccccc1)[C@@H](O)[C@H](O)[C@H](Cc1ccccc1)NC(=O)[C@@H](NC(=O)[C@@H](O)Cc1ccccc1)C(C)C`, 21.9 nM.
The figure for `CCCCC[C@H](NC(=O)[C@@H](NC(=O)[C@H](Cc1cccc2ccccc12)CS(=O)(=O)C(C)(C)C)C(C)C)[C@@H](O)[C@H](O)[C@@H](CCCCC)NC(=O)[C@H](NC(=O)[C@H](Cc1cccc2ccccc12)CS(=O)(=O)C(C)(C)C)C(C)C` is 1 nM; for `CC(C)(C)S(=O)(=O)C[C@@H](Cc1cccc2ccccc12)C(=O)N[C@H](C(=O)N[C@@H](Cc1ccccc1)[C@@H](O)[C@H](O)[C@H](Cc1ccccc1)NC(=O)[C@@H](NC(=O)[C@H](Cc1cccc2ccccc12)CS(=O)(=O)C(C)(C)C)C1CCCCC1)C1CCCCC1` it is 1.7 nM; for `CC(C)(C)[C@H](NC(=O)[C@H](Cc1cccc2ccccc12)CS(=O)(=O)C(C)(C)C)C(=O)N[C@@H](Cc1ccccc1)[C@@H](O)[C@H](O)[C@H](Cc1ccccc1)NC(=O)[C@@H](NC(=O)[C@H](Cc1cccc2ccccc12)CS(=O)(=O)C(C)(C)C)C(C)(C)C` it is 0.501 nM.
For `CC(C)(C)S(=O)(=O)C[C@@H](Cc1cccc2ccccc12)C(=O)N[C@@H](CCC(=O)O)C(=O)N[C@@H](Cc1ccccc1)[C@@H](O)[C@H](O)[C@H](Cc1ccccc1)NC(=O)[C@H](CCC(=O)O)NC(=O)[C@H](Cc1cccc2ccccc12)CS(=O)(=O)C(C)(C)C`, the IC50 was 0.741 nM.
For `CC(C)[C@H](NC(=O)[C@H](Cc1cccc2ccccc12)CS(=O)(=O)C(C)(C)C)C(=O)N[C@@H](CCc1ccncc1)[C@@H](O)[C@H](O)[C@H](CCc1ccncc1)NC(=O)[C@@H](NC(=O)[C@H](Cc1cccc2ccccc12)CS(=O)(=O)C(C)(C)C)C(C)C` the value was 141 nM; for `CC(C)[C@H](NC(=O)N(C)Cc1ccccn1)C(=O)N[C@@H](Cc1ccccc1)C(O)C(O)[C@H](Cc1ccccc1)NC(=O)[C@@H](NC(=O)N(C)Cc1ccccn1)C(C)C` (single isomer, unassigned) [A-76928], 15.1 nM; for `COc1ccc(C[C@H](CS(=O)(=O)C(C)(C)C)C(=O)N[C@H](C(=O)N[C@@H](Cc2ccccc2)[C@@H](O)[C@H](O)[C@H](Cc2ccccc2)NC(=O)[C@@H](NC(=O)[C@H](Cc2ccc(OC)cc2)CS(=O)(=O)C(C)(C)C)C(C)C)C(C)C)cc1`, 0.339 nM.
For `CC(C)[C@H](NC(=O)[C@H](Cc1cccc2ccccc12)NS(C)(=O)=O)C(=O)N[C@@H](Cc1ccccc1)[C@@H](O)[C@H](O)[C@H](Cc1ccccc1)NC(=O)[C@@H](NC(=O)[C@H](Cc1cccc2ccccc12)NS(C)(=O)=O)C(C)C` the value was 0.794 nM; for `CCC[C@H](NC(=O)[C@H](Cc1cccc2ccccc12)CS(=O)(=O)C(C)(C)C)C(=O)N[C@@H](Cc1ccccc1)[C@@H](O)[C@H](O)[C@H](Cc1ccccc1)NC(=O)[C@H](CCC)NC(=O)[C@H](Cc1cccc2ccccc12)CS(=O)(=O)C(C)(C)C`, 0.398 nM; for `CC(C)[C@H](NC(=O)[C@H](Cc1cccc2ccccc12)CS(=O)(=O)C(C)(C)C)C(=O)N[C@@H](Cc1cccc2c1OCO2)[C@@H](O)[C@H](O)[C@H](Cc1cccc2c1OCO2)NC(=O)[C@@H](NC(=O)[C@H](Cc1cccc2ccccc12)CS(=O)(=O)C(C)(C)C)C(C)C`, 0.398 nM.
For the compound `CC(C)(C)S(=O)(=O)C[C@@H](Cc1cccc2ccccc12)C(=O)N[C@@H](Cc1c[nH]cn1)C(=O)N[C@@H](Cc1ccccc1)[C@@H](O)[C@H](O)[C@H](Cc1ccccc1)NC(=O)[C@H](Cc1c[nH]cn1)NC(=O)[C@H](Cc1cccc2ccccc12)CS(=O)(=O)C(C)(C)C`, the IC50 is 339 nM.
For `CC(C)[C@H](NC(=O)[C@H](Cc1cccc2ccccc12)CS(=O)(=O)C(C)(C)C)C(=O)N[C@@H](Cc1ccccc1)[C@@H](O)[C@H](O)[C@H](Cc1ccccc1)NC(=O)[C@@H](NC(=O)[C@H](Cc1cccc2ccccc12)CS(=O)(=O)C(C)(C)C)C(C)C` the value was 0.302 nM; for `CC(C)[C@H](NC(=O)[C@H](Cc1ccccc1)CS(=O)(=O)C(C)(C)C)C(=O)N[C@@H](Cc1ccccc1)[C@@H](O)[C@H](O)[C@H](Cc1ccccc1)NC(=O)[C@@H](NC(=O)[C@H](Cc1ccccc1)CS(=O)(=O)C(C)(C)C)C(C)C`, 3.24 nM; for `CC(C)[C@H](NC(=O)[C@@H](CC(=O)O)Cc1ccccc1)C(=O)N[C@@H](Cc1ccccc1)[C@@H](O)[C@H](O)[C@H](Cc1ccccc1)NC(=O)[C@@H](NC(=O)[C@@H](CC(=O)O)Cc1ccccc1)C(C)C`, 1.41 nM.
The figure for `CC(C)[C@H](NC(=O)[C@H](Cc1ccccc1)NC(=O)[C@@H](O)C(O)[C@@H](O)C(O)O)C(=O)N[C@@H](Cc1ccccc1)[C@@H](O)[C@H](O)[C@H](Cc1ccccc1)NC(=O)[C@@H](NC(=O)[C@H](Cc1ccccc1)NC(=O)[C@@H](O)[C@@H](O)[C@@H](O)C(O)O)C(C)C` (single isomer, unassigned) is 0.891 nM.
For `CC(O)[C@H](NC(=O)[C@H](Cc1cccc2ccccc12)CS(=O)(=O)C(C)(C)C)C(=O)N[C@@H](Cc1ccccc1)[C@@H](O)[C@H](O)[C@H](Cc1ccccc1)NC(=O)[C@@H](NC(=O)[C@H](Cc1cccc2ccccc12)CS(=O)(=O)C(C)(C)C)C(C)O` (stereo partly specified) the value was 0.302 nM; for `CC(C)(C)S(=O)(=O)C[C@@H](Cc1cccc2ccccc12)C(=O)N[C@H](C(=O)N[C@@H](Cc1ccccc1)[C@@H](O)[C@H](O)[C@H](Cc1ccccc1)NC(=O)[C@@H](NC(=O)[C@H](Cc1cccc2ccccc12)CS(=O)(=O)C(C)(C)C)C1CCCC1)C1CCCC1`, 0.302 nM.
Regarding `CC(C)[C@H](NC(=O)COc1cccc2ccccc12)C(=O)N[C@@H](Cc1ccccc1)[C@@H](O)[C@H](O)[C@H](Cc1ccccc1)NC(=O)[C@@H](NC(=O)COc1cccc2ccccc12)C(C)C`, the IC50 is 38 nM.
The figure for `CC(C)(C)S(=O)(=O)C[C@@H](Cc1cccc2ccccc12)C(=O)N[C@@H](CC(N)=O)C(=O)N[C@@H](Cc1ccccc1)[C@@H](O)[C@H](O)[C@H](Cc1ccccc1)NC(=O)[C@H](CC(N)=O)NC(=O)[C@H](Cc1cccc2ccccc12)CS(=O)(=O)C(C)(C)C` is 100 nM; for `CC(C)[C@H](NC(=O)CCS(=O)(=O)c1ccncc1)C(=O)N[C@@H](Cc1ccccc1)[C@@H](O)[C@H](O)[C@H](Cc1ccccc1)NC(=O)[C@@H](NC(=O)CCS(=O)(=O)c1ccncc1)C(C)C` it is 3.98 nM; for `CC(C)[C@H](NC(=O)[C@@H](N)Cc1ccccc1)C(=O)N[C@@H](Cc1ccccc1)[C@@H](O)[C@H](O)[C@H](Cc1ccccc1)NC(=O)[C@@H](NC(=O)[C@@H](N)Cc1ccccc1)C(C)C` it is 0.851 nM.
The figure for `CC(C)[C@H](NC(=O)[C@H](Cc1cccc2ccccc12)CS(=O)(=O)C(C)(C)C)C(=O)N[C@@H](CCc1ccccc1)[C@@H](O)[C@H](O)[C@H](CCc1ccccc1)NC(=O)[C@@H](NC(=O)[C@H](Cc1cccc2ccccc12)CS(=O)(=O)C(C)(C)C)C(C)C` is 363 nM; for `CC(C)[C@H](NC(=O)[C@H](Cc1cccc2ccccc12)CS(=O)(=O)C(C)(C)C)C(=O)N[C@@H](Cc1ccc(O)cc1)[C@@H](O)[C@H](O)[C@H](Cc1ccc(O)cc1)NC(=O)[C@H](NC(=O)[C@H](Cc1cccc2ccccc12)CS(=O)(=O)C(C)(C)C)C(C)C` it is 2.88 nM.
The figure for `CC(C)[C@H](NC(=O)CCS(=O)(=O)C(C)(C)C)C(=O)N[C@@H](Cc1ccccc1)[C@@H](O)[C@H](O)[C@H](Cc1ccccc1)NC(=O)[C@@H](NC(=O)CCS(=O)(=O)C(C)(C)C)C(C)C` is 3.98 nM.
With `CC(C)[C@H](NC(=O)[C@H](Cc1cccc2ccccc12)CS(=O)(=O)C(C)(C)C)C(=O)NC[C@@H](O)[C@H](O)CNC(=O)[C@@H](NC(=O)[C@H](Cc1cccc2ccccc12)CS(=O)(=O)C(C)(C)C)C(C)C`, the IC50 is 2.19 nM.

For the origin of these results see ChEMBL document CHEMBL1155285, “3D-QSAR CoMFA/CoMSIA models based on theoretical active conformers of HOE/BAY-793 analogs derived from HIV-1 protease inhibitor complexes” (Eur J Med Chem, 2009).
